By pKi is commonly meant the Ki on a negative log10 scale, so that one unit is a factor of ten. Low values mean a high Ki, high ones a low Ki. One may read the ED50 as the midpoint of the dose-response relation. High values mean a need for a large dose, low ones an effect at a small dose.

One experiment addresses D(2) dopamine receptor (Homo sapiens, UniProt P14416). Kind of experiment: Binding affinity towards DA D2 receptor using [3H]N-methyl-spiperone as radioligand.
Experiment [1] addresses T1, 5-hydroxytryptamine receptor 2C (Homo sapiens, UniProt P28335).
T1 sequence (P28335 whole entry): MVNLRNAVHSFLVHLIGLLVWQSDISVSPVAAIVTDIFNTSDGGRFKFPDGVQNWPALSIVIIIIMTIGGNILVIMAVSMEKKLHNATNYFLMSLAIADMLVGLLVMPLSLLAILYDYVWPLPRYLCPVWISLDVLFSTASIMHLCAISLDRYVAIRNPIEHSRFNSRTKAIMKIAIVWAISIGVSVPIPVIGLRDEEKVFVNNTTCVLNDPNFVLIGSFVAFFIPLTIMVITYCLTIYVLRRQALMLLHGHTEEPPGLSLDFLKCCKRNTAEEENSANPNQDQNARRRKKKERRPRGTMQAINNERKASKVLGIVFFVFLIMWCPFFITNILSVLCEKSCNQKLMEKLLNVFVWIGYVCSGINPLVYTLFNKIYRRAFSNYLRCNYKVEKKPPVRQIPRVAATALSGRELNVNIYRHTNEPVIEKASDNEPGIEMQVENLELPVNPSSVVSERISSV
Kind of experiment: Binding affinity towards 5-hydroxytryptamine 2C receptor using [125I]DOI as radioligand.

In experiment [2] the target is Dopamine D2 receptor and serotonin 2a receptor (Homo sapiens) (UniProt P14416+P28223). Kind of experiment: Selectivity ratio for inhibition of dopamine D2 receptor to that of 5-HT2A receptor. The format is protein assay.
Experiment [3] deals with 5-hydroxytryptamine receptor 2A (Homo sapiens, UniProt P28223). Kind of experiment: Binding affinity towards 5-hydroxytryptamine 2A receptor using [125I]DOI as radioligand.
The next experiment has as its system Rattus norvegicus. Kind of experiment: Inhibition of quipazine induced head twitching after peroral administration in rat. The format is functional. To be noted: po.

Structures are written as SMILES. pKi: −log10 of the molar value.

Sequence of Dopamine D2 receptor and serotonin 2a receptor (Homo sapiens) (P14416 whole entry, looked up): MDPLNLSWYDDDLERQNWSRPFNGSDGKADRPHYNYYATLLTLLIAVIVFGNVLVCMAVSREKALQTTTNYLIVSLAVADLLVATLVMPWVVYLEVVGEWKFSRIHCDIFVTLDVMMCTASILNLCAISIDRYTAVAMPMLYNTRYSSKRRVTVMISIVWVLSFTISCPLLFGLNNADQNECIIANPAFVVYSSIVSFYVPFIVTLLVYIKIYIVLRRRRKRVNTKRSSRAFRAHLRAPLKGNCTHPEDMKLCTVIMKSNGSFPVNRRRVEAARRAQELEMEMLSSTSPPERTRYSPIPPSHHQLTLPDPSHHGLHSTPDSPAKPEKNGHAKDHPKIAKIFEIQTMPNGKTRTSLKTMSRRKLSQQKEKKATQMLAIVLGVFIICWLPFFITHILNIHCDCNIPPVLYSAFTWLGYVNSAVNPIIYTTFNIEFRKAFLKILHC
Sequence of Dopamine D2 receptor and serotonin 2a receptor (Homo sapiens) (P28223 whole entry, looked up): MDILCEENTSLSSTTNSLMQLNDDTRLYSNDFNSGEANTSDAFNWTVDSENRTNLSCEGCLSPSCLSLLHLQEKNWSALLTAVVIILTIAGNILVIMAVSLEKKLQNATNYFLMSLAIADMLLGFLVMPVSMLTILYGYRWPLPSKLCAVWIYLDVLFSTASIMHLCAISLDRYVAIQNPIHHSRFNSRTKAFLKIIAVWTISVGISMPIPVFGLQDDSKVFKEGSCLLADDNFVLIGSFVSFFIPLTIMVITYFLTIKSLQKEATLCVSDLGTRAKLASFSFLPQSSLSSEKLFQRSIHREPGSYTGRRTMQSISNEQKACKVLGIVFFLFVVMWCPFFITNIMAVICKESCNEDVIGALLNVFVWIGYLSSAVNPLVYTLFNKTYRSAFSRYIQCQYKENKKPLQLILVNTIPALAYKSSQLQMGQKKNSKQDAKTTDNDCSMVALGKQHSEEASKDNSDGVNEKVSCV
Sequence of D(2) dopamine receptor (P14416 whole entry): as the sequence (P14416 whole entry, looked up) above
Sequence of 5-hydroxytryptamine receptor 2A (P28223 whole entry): as the sequence (P28223 whole entry, looked up) above

`Nc1cc(O)ccc1C(=O)CCCN1CC[C@H]2[C@@H](C1)c1cccc3c1N2CCCS3`: the pKi at D(2) dopamine receptor was 7.30; in experiment [1], 6.59; in experiment [3], 7.05. In addition, in experiment [2], the Ratio came out at 0.56.
Turning to `Nc1cc(F)ccc1C(=O)CCCN1CC[C@H]2[C@@H](C1)c1cccc3c1N2CCCS3` (stereo in doubt; (+)-6) [listing 1 of 2 here], the Ratio in experiment [2] came to 6.8.
Turning to `CS(=O)(=O)Nc1cc(F)ccc1C(=O)CCCN1CC[C@H]2[C@@H](C1)c1cccc3c1N2CCCS3`, the pKi was 7.74 at D(2) dopamine receptor, 6.19 in experiment [1] and 8.12 in experiment [3]. In addition, the Ratio in experiment [2] stood at 2.4.
For the compound `CC(=O)Nc1cc(F)ccc1C(=O)CCCN1CC[C@H]2[C@@H](C1)c1cccc3c1N2CCCS3`, the figures for the negative-log Ki (pKi) (at D(2) dopamine receptor; in experiment [1]; in experiment [3]) were 8.47, 6.65 and 9.10, respectively. Further, the Ratio in experiment [2] was found to be 4.3.
As for `Nc1cc(F)ccc1C(=O)CCCN1CC[C@@H]2[C@H](C1)c1cccc3c1N2CCS3`, the pKi was 7.85 on D(2) dopamine receptor, 6.74 in experiment [1] and 8.82 in experiment [3]. In experiment [2], the Ratio stood at 9.3.
For `Nc1ccc(F)cc1C(=O)CCCN1CC[C@H]2[C@@H](C1)c1cccc3c1N2CCCS3` the same measures were 7.82, 6.59, 7.82 and 1.
`Nc1cc(F)ccc1C(=O)CCCN1CC[C@H]2[C@@H](C1)c1cccc3c1N2CCCS3` (stereo in doubt; 6) [listing 1 of 2 here]: the results for the pKi (on D(2) dopamine receptor; in experiment [1]; in experiment [3]) were 8.39, 6.97 and 9.15, respectively.
For `Nc1ccccc1C(=O)CCCN1CC[C@H]2[C@@H](C1)c1cccc3c1N2CCCS3` (stereo in doubt; 4) [listing 1 of 2 here], the pKi on D(2) dopamine receptor is 8.22; in experiment [1] it was 6.70; in experiment [3], 8.68.
With `O=CNc1cc(F)ccc1C(=O)CCCN1CC[C@H]2[C@@H](C1)c1cccc3c1N2CCCS3`, the pKi is 8.11 on D(2) dopamine receptor, 6.59 in experiment [1] and 7.05 in experiment [3]. Moreover, the Ratio in experiment [2] was 0.09.
As to `Nc1c(F)cccc1C(=O)CCCN1CC[C@H]2[C@@H](C1)c1cccc3c1N2CCCS3`, the figures for the pKi (on D(2) dopamine receptor; in experiment [1]; in experiment [3]) were 7.85, 6.17 and 8.12, respectively. Also, the Ratio in experiment [2] was determined as 1.8.
In the same order, the values of `Nc1cc(Cl)ccc1C(=O)CCCN1CC[C@H]2[C@@H](C1)c1cccc3c1N2CCCS3` are 8.64, 6.12, 7.15 and 0.03.
As for `Nc1cc(F)ccc1C(=O)CCCN1CC[C@H]2[C@@H](C1)c1cccc3c1N2CCO3`, the pKi on D(2) dopamine receptor is 8.64; in experiment [1] it was 6.89; in experiment [3], 9.70. For the same compound, the Ratio in experiment [2] came to 12.
For `Nc1ccccc1C(=O)CCCN1CC[C@H]2[C@@H](C1)c1cccc3c1N2CCC3` the same measures were 7.17, 6.97, 9.10 and 85.
As for `Nc1cc(F)ccc1C(=O)CCCN1CC[C@@H]2[C@H](C1)c1cccc3c1N2CCC3`, the negative-log Ki (pKi) on D(2) dopamine receptor was 7.54; in experiment [1] it was 7.15; in experiment [3], 8.92. In the experiment on Rattus norvegicus, this compound registered an ED50 of 1.4 mg/kg. The Ratio in experiment [2] was 24.
`Nc1ccccc1C(=O)CCCN1CC[C@@H]2[C@H](C1)c1cccc3c1N2CCCC3`: the pKi was 7.70 at D(2) dopamine receptor, 6.83 in experiment [1] and 8.51 in experiment [3]. For the same compound, the Ratio in experiment [2] is 6.5.
Take `Nc1ccccc1C(=O)CCCN1CC[C@H]2[C@@H](C1)c1cccc3c1N2CCO3`: the negative logarithm of the Ki (pKi) on D(2) dopamine receptor is 7.64; in experiment [1], 6.47; in experiment [3], 8.80. In experiment [2], the Ratio came to 14.
For the compound `Nc1cc(F)ccc1C(=O)CCCN1CC[C@H]2[C@@H](C1)c1cccc3c1N2CCCS3` (stereo in doubt; (+)-6) [listing 2 of 2 here], the results for the negative logarithm of the Ki (pKi) (at D(2) dopamine receptor; in experiment [1]; in experiment [3]) were 8.57, 7.09 and 9.40, respectively. In the experiment on Rattus norvegicus, this compound had a 50% effective dose (ED50) of 0.52 mg/kg.
`CCOC(=O)Nc1cc(F)ccc1C(=O)CCCN1CC[C@H]2[C@@H](C1)c1cccc3c1N2CCCS3`: the negative-log Ki (pKi) was 7.82 at D(2) dopamine receptor, 6.46 in experiment [1] and 7.29 in experiment [3]. The Ratio in experiment [2] came to 0.29.
As to `Nc1cc(Br)ccc1C(=O)CCCN1CC[C@H]2[C@@H](C1)c1cccc3c1N2CCCS3`, the results for the pKi (on D(2) dopamine receptor; in experiment [1]; in experiment [3]) were 8.33, 6.95 and 7.10, respectively. Moreover, the Ratio in experiment [2] turned out to be 0.06.
For `Nc1cc(F)ccc1C(=O)CCCN1CC[C@H]2[C@@H](C1)c1cccc3c1N2CCC3` the same measures were 8.28, 7.28, 9.30 and 10.2.
For `Nc1cc(F)ccc1C(=O)CCCN1CC[C@H]2[C@@H](C1)c1cccc3c1N2CCCC3` the same measures were 8.46, 6.87, 9.22 and 5.8.
In the same order, the values of `CNc1ccccc1C(=O)CCCN1CC[C@H]2[C@@H](C1)c1cccc3c1N2CCCS3` are 7.51, 6.60, 7.21 and 0.5.
Consider `Nc1ccccc1C(=O)CCCN1CC[C@@H]2[C@H](C1)c1cccc3c1N2CCO3`, for which the figures for the pKi (at D(2) dopamine receptor; in experiment [1]; in experiment [3]) were 7.22, 6.30 and 7.92, respectively. The Ratio in experiment [2] is 5.
For the compound `Nc1cc(F)ccc1C(=O)CCCN1CC[C@@H]2[C@H](C1)c1cccc3c1N2CCCC3`, the pKi at D(2) dopamine receptor is 7.72; in experiment [1], 6.87; in experiment [3], 9.05. The Ratio in experiment [2] came to 21.
For `Nc1ccccc1C(=O)CCCN1CC[C@H]2[C@@H](C1)c1cccc3c1N2CCS3` the same measures were 7.39, 6.38, 9.10 and 51.
As to `Nc1ccccc1C(=O)CCCN1CC[C@H]2[C@@H](C1)c1cccc3c1N2CCCS3` (stereo in doubt; (+)-4) [listing 1 of 2 here], in experiment [2], the Ratio was found to be 25.
Still for that read-out and setting: to `Nc1cc(F)ccc1C(=O)CCCN1CC[C@H]2[C@@H](C1)c1cccc3c1N2CCCS3` (stereo in doubt; 6) [listing 2 of 2 here] belongs 5.9.
For `Nc1ccccc1C(=O)CCCN1CC[C@@H]2[C@H](C1)c1cccc3c1N2CCCS3`, the figures for the pKi (at D(2) dopamine receptor; in experiment [1]; in experiment [3]) were 8.23, 6.49 and 7.98, respectively. Also, in experiment [2], the Ratio turned out to be 0.57.
For `CCNC(=O)Nc1cc(F)ccc1C(=O)CCCN1CC[C@H]2[C@@H](C1)c1cccc3c1N2CCCS3` the same measures were 7.59, 7.32, 7.96 and 2.3.
In the same order, the values of `Nc1cc(F)ccc1C(=O)CCCN1CC[C@@H]2[C@H](C1)c1cccc3c1N2CCCS3` are 8.33, 6.34, 8.38 and 1.1.
Regarding `O=C(CCCN1CC[C@H]2[C@@H](C1)c1cccc3c1N2CCCS3)c1ccc(F)cc1`, the pKi is 8.06 at D(2) dopamine receptor, 6.22 in experiment [1] and 8.60 in experiment [3]. This compound also showed an ED50 with Rattus norvegicus of 0.86 mg/kg. In addition, in experiment [2], the Ratio came to 3.5.
With `Nc1ccccc1C(=O)CCCN1CC[C@H]2[C@@H](C1)c1cccc3c1N2CCCS3` (stereo in doubt; 4) [listing 2 of 2 here], the Ratio in experiment [2] worked out at 2.9.
On to `Nc1ccccc1C(=O)CCCN1CC[C@H]2[C@@H](C1)c1cccc3c1N2CCCC3`, for which the figures for the negative-log Ki (pKi) (at D(2) dopamine receptor; in experiment [1]; in experiment [3]) were 7.96, 6.97 and 9.15, respectively. In experiment [2], the Ratio is 16.
As for `Nc1ccccc1C(=O)CCCN1CC[C@H]2[C@@H](C1)c1cccc3c1N2CCCS3` (stereo in doubt; (+)-4) [listing 2 of 2 here], the pKi at D(2) dopamine receptor is 7.82; in experiment [1] it was 6.76; in experiment [3], 9.22.
In the case of `Nc1ccccc1C(=O)CCCN1CC[C@@H]2[C@H](C1)c1cccc3c1N2CCS3`, the pKi was 7.72 on D(2) dopamine receptor, 6.63 in experiment [1] and 8.18 in experiment [3]. For the same compound, the Ratio in experiment [2] turned out to be 2.9.
In the case of `Nc1cc(F)ccc1C(=O)CCCN1CC[C@@H]2[C@H](C1)c1cccc3c1N2CCO3`, the pKi was 7.80 at D(2) dopamine receptor, 6.18 in experiment [1] and 8.55 in experiment [3]. In the experiment with Rattus norvegicus, this compound yielded an ED50 of 0.03 mg/kg. Moreover, the Ratio in experiment [2] amounted to 5.7.
On to `O=C(CCCN1CC[C@H]2[C@@H](C1)c1cccc3c1N2CCCS3)c1ccccc1`, for which the pKi on D(2) dopamine receptor is 7.77; in experiment [1], 6.38; in experiment [3], 8.57. Moreover, the Ratio in experiment [2] amounted to 6.3.
In the same order, the values of `Nc1ccccc1C(=O)CCCN1CC[C@@H]2[C@H](C1)c1cccc3c1N2CCC3` are 7.20, 7.03, 8.43 and 17.
On to `Nc1cc(F)ccc1C(=O)CCCN1CC[C@H]2[C@@H](C1)c1cccc3c1N2CCS3`, for which the pKi on D(2) dopamine receptor was 8.40; in experiment [1], 7.05; in experiment [3], 9.52. Further, in experiment [2], the Ratio was 13.

For the origin of these results see ChEMBL document CHEMBL1144968, “Novel, highly potent, selective 5-HT2A/D2 receptor antagonists as potential atypical antipsychotics” (Bioorg Med Chem Lett, 2003).
